Measured values: patent US10946030B2, “Formulations of deoxycholic acid and salts thereof” (ALLERGAN SALES, LLC, priority 2011, dated 2021)
“Also recorded” adds a separate entry of the source.

How the values were obtained:
[1] = pH measurement of sodium deoxycholate solutions; format: physicochemical
Excerpt: The inverse aqueous solubility of sodium deoxycholate, where a more dilute solution (0.5% or 1%) provides more precipitation than a more concentrated solution (2%), is a surprising observation and also evidences that the precipitation phenomena is not directly related to pH, because the pH of the solutions were substantially the same again, especially for the 1% and 2% solutions.

[2] = Concentration dependent precipitation from aqueous sodium deoxycholate solution after storage, rated by visual inspection; format: physicochemical; conditions: 1 week storage; for Precipitation Rating: scale 0 = clear solution, 10 = substantial precipitation
Procedure: Solutions of sodium deoxycholate at different concentration were evaluated for precipitate formation after 1 week of storage. […] By visual inspection of FIGS. 1-4, the amount of precipitation can be rated as tabulated below.

Compound `C[C@H](CCC(=O)[O-])[C@H]1CCC2C3CC[C@@H]4C[C@H](O)CC[C@]4(C)C3C[C@H](O)[C@@]21C.[Na+]` (stereo partly drawn) [Sodium Deoxycholate, sodium (4R)-4-((3R,5R,10S,12S,13R,17R)-3,12-dihydroxy-10,13-dimethylhexadecahydro-1H-cyclopenta[a]phenanthren-17-yl)pentanoate] has a pH ([1]; 0.5% w/v solution, reading 1, 24.7 °C) of 7.77, a pH ([1]; 0.5% w/v solution, reading 2, 24.5 °C) of 7.71 and a pH ([1]; 1% w/v solution, reading 1, 24.6 °C) of 7.93. It also gave a pH ([1]; 1% w/v solution, reading 2, 24.5 °C) of 7.97, a pH ([1]; 2% w/v solution, reading 1, 24.9 °C) of 8.07 and a pH ([1]; 2% w/v solution, reading 2, 24.7 °C) of 8.06. For the same compound, the “Precipitate observed (Comment)” value ([2]; 0.5% w/v in water + 0.9% w/v benzyl alcohol, FIG. 2) was “Significant amounts of precipitate visible”, the “Precipitate observed (Comment)” value ([2]; 0.5% w/v in water + 0.9% w/v benzyl alcohol, FIG. 2, listed as sodium deoxycholate) was “a significant amount of precipitate is formed; also recorded: significant amounts of precipitate” and the “Precipitation Rating” value ([2]; 0.5% w/v in water + 0.9% w/v benzyl alcohol) was 10. The “Precipitate observed (Comment)” value ([2]; 1% w/v in water + 0.9% w/v benzyl alcohol, FIG. 3) was “Significant amounts of precipitate visible”, the “Precipitate observed (Comment)” value ([2]; 1% w/v in water + 0.9% w/v benzyl alcohol, FIG. 3, listed as sodium deoxycholate) was “a significant amount of precipitate is formed; also recorded: significant amounts of precipitate, albeit less than that of 0.5% w/v sodium deoxycholate” and the “Precipitation Rating” value ([2]; 1.0% w/v in water + 0.9% w/v benzyl alcohol) was 7. The “Precipitate observed (Comment)” value ([2]; 2% w/v in water + 0.9% w/v benzyl alcohol, FIG. 4) was “Precipitation visible to the naked eye but”, the “Precipitate observed (Comment)” value ([2]; 2% w/v in water + 0.9% w/v benzyl alcohol, FIG. 4, listed as sodium deoxycholate) was “significant amounts of precipitate but substantially less than that observed in FIGS. 2 and 3” and the “Precipitation Rating” value ([2]; 2.0% w/v in water + 0.9% w/v benzyl alcohol) was 2.
